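All cell lines were grown in 96-well plates and treated with compound for 48 hours. Here, GI50 denotes the concentration required for 50% inhibition of growth.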 The source made the active and inactive calls. Rule as the data show it: active = GI50 up to about 1.1 µM and inactive = higher.
Tests used:
Assay in all cases: NCI tumour cell line growth inhibition, 48 h
OVCAR-8 = system: OVCAR-8
NCI/ADR-RES = system: NCI/ADR-RES
SW-620 = system: SW-620
EKVX = system: EKVX
HOP-62 = system: HOP-62
SF-268 = system: SF-268
Hs-578T = system: Hs-578T
SK-MEL-2 = system: SK-MEL-2
RXF 393 = system: RXF 393
IGROV-1 = system: IGROV-1
U-251 = system: U-251
SF-295 = system: SF-295
KM12 = system: KM12
OVCAR-3 = system: OVCAR-3
TK-10 = system: TK-10
NCI-H23 = system: NCI-H23
MDA-MB-435 = system: MDA-MB-435
UO-31 = system: UO-31
HCC 2998 = system: HCC 2998
UACC-257 = system: UACC-257
SK-MEL-5 = system: SK-MEL-5
PC-3 = system: PC-3
MCF7 = system: MCF7
CCRF-CEM = system: CCRF-CEM
SF-539 = system: SF-539
A549 = system: A549
LOX IMVI = system: LOX IMVI
SNB-75 = system: SNB-75
HOP-92 = system: HOP-92
786-0 = system: 786-0
T47D = system: T47D
K562 = system: K562
A498 = system: A498
NCI-H522 = system: NCI-H522
M14 = system: M14
OVCAR-5 = system: OVCAR-5
OVCAR-4 = system: OVCAR-4
SR = system: SR
HT-29 = system: HT-29
COLO 205 = system: COLO 205
Malme-3M = system: Malme-3M
CAKI-1 = system: CAKI-1
HL-60 = system: HL-60
HCT-116 = system: HCT-116
DU-145 = system: DU-145
UACC-62 = system: UACC-62
MDA-N = system: MDA-N
SK-MEL-28 = system: SK-MEL-28
SK-OV-3 = system: SK-OV-3
MOLT-4 = system: MOLT-4
RPMI-8226 = system: RPMI-8226
NCI-H460 = system: NCI-H460
SNB-19 = system: SNB-19
HCT-15 = system: HCT-15
ACHN = system: ACHN
MDA-MB-231 = system: MDA-MB-231
SN12C = system: SN12C
NCI-H226 = system: NCI-H226

Measured: GI50

COc1ccc(C(=O)c2nc3ccccc3nc2N2CCN(c3ccccc3)CC2)cc1OC
> 100 µM: HCT-15
inactive: OVCAR-8 > 100 µM | NCI/ADR-RES > 100 µM | SW-620 > 100 µM | EKVX > 100 µM | HOP-62 > 100 µM | SF-268 > 100 µM | Hs-578T > 100 µM | SK-MEL-2 > 100 µM | RXF 393 > 100 µM | IGROV-1 > 100 µM | U-251 > 100 µM | SF-295 > 100 µM | KM12 > 100 µM | OVCAR-3 > 100 µM | TK-10 > 100 µM | NCI-H23 > 100 µM | MDA-MB-435 > 100 µM | UO-31 > 100 µM | HCC 2998 > 100 µM | UACC-257 > 100 µM | SK-MEL-5 > 100 µM | PC-3 > 100 µM | MCF7 39.1 µM | CCRF-CEM > 100 µM | SF-539 > 100 µM | A549 > 100 µM | LOX IMVI > 100 µM | SNB-75 > 100 µM | HOP-92 > 100 µM | 786-0 > 100 µM | T47D > 100 µM | K562 > 100 µM | A498 > 100 µM | NCI-H522 > 100 µM | M14 > 100 µM | OVCAR-5 > 100 µM | OVCAR-4 > 100 µM | SR > 100 µM | HT-29 > 100 µM | COLO 205 > 100 µM | Malme-3M > 100 µM | CAKI-1 > 100 µM | HL-60 > 100 µM | HCT-116 > 100 µM | DU-145 > 100 µM | UACC-62 > 100 µM | MDA-N > 100 µM | SK-MEL-28 > 100 µM | SK-OV-3 > 100 µM | MOLT-4 > 100 µM | RPMI-8226 > 100 µM | NCI-H460 > 100 µM | SNB-19 > 100 µM | ACHN > 100 µM

CC(=O)OCC12CCC3C4(C)CCCC(C)(C)C4CCC3(C)C1CC(C1=CC(=O)OC1O)O2 (stereo not drawn)
inactive: OVCAR-8 1.38 µM | SW-620 1.29 µM | EKVX 2.43 µM | HOP-62 2.41 µM | RXF 393 2.06 µM | IGROV-1 1.54 µM | SF-295 2.34 µM | KM12 1.82 µM | TK-10 1.9 µM | NCI-H23 1.69 µM | HCC 2998 1.84 µM | UACC-257 1.91 µM | SK-MEL-5 1.86 µM | PC-3 1.31 µM | MCF7 1.24 µM | A549 2.92 µM | LOX IMVI 1.18 µM | MDA-MB-231 1.75 µM | SNB-75 1.76 µM | T47D 1.88 µM | M14 1.42 µM | HT-29 1.3 µM | COLO 205 1.83 µM | CAKI-1 1.49 µM | SN12C 1.34 µM | DU-145 2.07 µM | UACC-62 1.8 µM | MDA-N 1.53 µM | SK-MEL-28 1.53 µM | SK-OV-3 2.47 µM
0.92 µM: HCT-15
active: CCRF-CEM 0.303 µM | 786-0 1.09 µM | K562 0.776 µM | SR 0.244 µM | Malme-3M 1.05 µM | HL-60 0.513 µM | MOLT-4 0.248 µM | RPMI-8226 0.428 µM

O=C(Cc1ccccc1)NN1C(=O)/C(=C\c2cccc([N+](=O)[O-])c2)S/C1=N\c1ccccc1
> 100 µM: HCT-15
inactive: OVCAR-8 > 100 µM | NCI/ADR-RES > 100 µM | SW-620 > 100 µM | EKVX > 100 µM | HOP-62 > 100 µM | SF-268 > 100 µM | Hs-578T > 100 µM | SK-MEL-2 > 100 µM | RXF 393 > 100 µM | IGROV-1 > 100 µM | U-251 > 100 µM | SF-295 > 100 µM | KM12 > 100 µM | OVCAR-3 > 100 µM | TK-10 > 100 µM | NCI-H23 > 100 µM | MDA-MB-435 > 100 µM | UO-31 > 100 µM | HCC 2998 > 100 µM | UACC-257 > 100 µM | SK-MEL-5 > 100 µM | MCF7 34.7 µM | SF-539 > 100 µM | A549 > 100 µM | MDA-MB-231 > 100 µM | SNB-75 > 100 µM | HOP-92 44 µM | 786-0 > 100 µM | T47D > 100 µM | K562 > 100 µM | A498 > 100 µM | M14 > 100 µM | OVCAR-5 > 100 µM | OVCAR-4 > 100 µM | HT-29 > 100 µM | COLO 205 > 100 µM | SN12C > 100 µM | HCT-116 > 100 µM | DU-145 > 100 µM | UACC-62 > 100 µM | MDA-N > 100 µM | NCI-H226 > 100 µM | SK-MEL-28 > 100 µM | SK-OV-3 > 100 µM | MOLT-4 42.5 µM | RPMI-8226 > 100 µM | NCI-H460 > 100 µM | SNB-19 > 100 µM | ACHN > 100 µM

O=C(CSc1nc2ccc(I)cc2c(=O)n1Cc1ccccc1)NN1C(=O)CSC1c1ccccc1 (stereo not drawn)
14.1 µM: HCT-15
inactive: OVCAR-8 32.7 µM | NCI/ADR-RES 26.5 µM | SW-620 38 µM | EKVX 29.2 µM | HOP-62 18.6 µM | SF-268 28.8 µM | SK-MEL-2 24.3 µM | RXF 393 25.8 µM | IGROV-1 22.6 µM | U-251 29.6 µM | SF-295 27.1 µM | KM12 22.5 µM | OVCAR-3 16.1 µM | TK-10 27.4 µM | NCI-H23 18.3 µM | MDA-MB-435 27.2 µM | HCC 2998 21.5 µM | UACC-257 20.4 µM | SK-MEL-5 18.5 µM | PC-3 32.2 µM | MCF7 19.2 µM | CCRF-CEM 29.2 µM | SF-539 27.9 µM | A549 35.2 µM | LOX IMVI 19.5 µM | MDA-MB-231 26.9 µM | SNB-75 34.2 µM | HOP-92 19.4 µM | 786-0 38.3 µM | T47D 28.1 µM | K562 26.5 µM | NCI-H522 15.6 µM | M14 29.5 µM | OVCAR-5 53.8 µM | OVCAR-4 25.8 µM | SR 26.5 µM | HT-29 35 µM | COLO 205 15.3 µM | CAKI-1 3.13 µM | HL-60 4.68 µM | SN12C 23 µM | HCT-116 24 µM | DU-145 26.4 µM | UACC-62 19.3 µM | MDA-N 35.7 µM | NCI-H226 26.9 µM | SK-MEL-28 30.2 µM | SK-OV-3 24.1 µM | MOLT-4 29.2 µM | RPMI-8226 31.2 µM | NCI-H460 18 µM | SNB-19 40.7 µM | ACHN 18.2 µM

Source: ChEMBL document CHEMBL1201862, “PubChem BioAssay data set” (2004)
